The results in this text go back to ChEMBL document CHEMBL1201862, “PubChem BioAssay data set” (2004).

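Interpolation was linear, between the two tested concentrations surrounding the appropriate level; five concentrations were tested over 48 hours in 96-well plates. The concentration for 50% growth inhibition is given as GI50.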 Activity calls are given as the source filed them. No stated cut-off is given here; in the data, active = GI50 up to about 1.1 µM and inactive = higher. Where only a bound is given, the exact number is not on record here.

Holding throughout (assay): NCI anticancer screen, dose series, 48 h
The subject of assay [1] is RPMI-8226.
Assay [2] deals with HCC 2998.
Assay [3] concerns TK-10.
In assay [4] the test system is MDA-MB-231.
The test system of assay [5] is MDA-MB-435.
Assay [6] concerns UACC-257.
Assay [7] has as its system M14.
For assay [8], the system named is LOX IMVI.
Assay [9] deals with NCI-H522.
In assay [10] the test system is A549.
For assay [11], the system named is CAKI-1.
For assay [12], the system named is A498.
The subject of assay [13] is ACHN.
Assay [14] relates to SN12C.
Assay [15] has as its system SK-MEL-28.
For assay [16], the system named is HL-60.
Assay [17] has as its system U-251.
Assay [18] has as its system OVCAR-4.
Assay [19] deals with DU-145.
The test system of assay [20] is SNB-19.

Regarding `CC(=O)OC1COC(n2c(N)c(C#N)c(C)c(C#N)c2=S)C(OC(C)=O)C1OC(C)=O` (stereo not given), the GI50 is > 100 µM (inactive) in [1]; 75.3 µM (inactive) in assay [2]; > 100 µM (inactive) in assay [3]; > 100 µM (inactive) in assay [4]; > 100 µM (inactive) in assay [5]; > 100 µM (inactive) in [6]. Moreover, the GI50 in [7], in [8], in [9], in [10], in assay [11] and in [12] was > 100 µM (inactive) in each case. In addition, the GI50 is 59.6 µM (inactive) in assay [13], > 100 µM (inactive) in assay [14] and > 100 µM (inactive) in assay [15].

Regarding `CCOc1ccc(NC(=O)C(=O)C2C(=O)Nc3ccccc3[S+]2[O-])cc1` (stereo not given), the GI50 in assay [1], in assay [3], in [4], in assay [16], in assay [5] and in [6] was > 100 µM (inactive) each time. Also, the GI50 in assay [7] was > 100 µM (inactive); in assay [8], > 100 µM (inactive); in [17] it was > 100 µM (inactive); in assay [18] it was 89.7 µM (inactive); in [9], > 100 µM (inactive); in [10], > 100 µM (inactive). Also, the GI50 in assay [11], in assay [12], in assay [13], in assay [14] and in [15] was > 100 µM (inactive) in each case.

As to `NC1CC(=O)c2cscc21` (stereo not given), the GI50 in assay [1] was 4.46 µM (inactive); in assay [3] it was 19.1 µM (inactive); in assay [19], 91.4 µM (inactive); in assay [4], > 100 µM (inactive); in [16] it was 13.6 µM (inactive); in assay [5], 24.1 µM (inactive). For the same compound, the GI50 in assay [6] was 93.5 µM (inactive); in assay [7], 31.1 µM (inactive); in assay [8] it was 31.8 µM (inactive); in assay [17], > 100 µM (inactive); in assay [18] it was > 100 µM (inactive); in assay [10], 14.1 µM (inactive). Besides, the GI50 in assay [11] is 15.9 µM (inactive); in assay [20], 53.3 µM (inactive); in [14], 27.6 µM (inactive); in assay [15], 37.3 µM (inactive).

Regarding `NC(=S)N/N=C/C(O[C@@H](/C=N/NC(N)=S)CO)n1cnc2c(N)ncnc21` (stereo not given in full), the GI50 in assay [1] is > 45 µM (inactive); in [2], > 100 µM (inactive); in assay [3], > 100 µM (inactive); in [16], 67 µM (inactive); in assay [6] it was > 100 µM (inactive); in assay [7], > 100 µM (inactive). Besides, the GI50 was > 100 µM (inactive) in [8]; > 51.2 µM (inactive) in assay [17]; > 100 µM (inactive) in [18]; > 47.9 µM (inactive) in [9]; > 65.3 µM (inactive) in assay [10]; > 100 µM (inactive) in [11]. Moreover, the GI50 in assay [12], in [20], in assay [13], in assay [14] and in assay [15] was > 100 µM (inactive) throughout.

Regarding `O=C(CSCC(=O)N/N=C/c1ccccc1)N/N=C\c1ccccc1`, the GI50 was 38.1 µM (inactive) in assay [1]; > 100 µM (inactive) in assay [3]; > 100 µM (inactive) in [19]; > 100 µM (inactive) in assay [4]; > 100 µM (inactive) in [5]; > 100 µM (inactive) in assay [6]. For the same compound, the GI50 in assay [7], in assay [8], in [17], in assay [18], in assay [9] and in assay [10] was > 100 µM (inactive) in each case. Further, the GI50 in assay [11], in assay [20], in assay [13], in assay [14] and in assay [15] was > 100 µM (inactive) each time.

Consider `CCOc1ccccc1NC(=O)C(=O)CC(=O)C1=C(C)Nc2ccccc2S1`, for which the GI50 in [1] is > 100 µM (inactive); in assay [2], > 100 µM (inactive); in assay [3], > 100 µM (inactive); in [16], > 21.1 µM (inactive); in assay [6], > 100 µM (inactive); in assay [7] it was > 100 µM (inactive). The GI50 in [8], in assay [17], in [18], in assay [9], in [10] and in assay [11] was > 100 µM (inactive) throughout. Besides, the GI50 in assay [12], in [20], in assay [13], in assay [14] and in assay [15] was > 100 µM (inactive) in each case.

Regarding `CC(=O)[O-].[Zn+].c1ccc(/C(=N\Nc2ccccn2)c2ccccn2)cc1`, the GI50 was 0.01 µM (active) in assay [1]; 0.71 µM (active) in [2]; 0.44 µM (active) in assay [3]; 0.458 µM (active) in assay [19]; 0.00121 µM (active) in [16]; 0.408 µM (active) in assay [5]. Moreover, the GI50 is 0.08 µM (active) in assay [6]; 0.0813 µM (active) in assay [7]; 0.264 µM (active) in [8]; 0.281 µM (active) in [17]; 0.603 µM (active) in assay [18]; 0.165 µM (active) in assay [9]. Further, the GI50 in assay [10] was 0.344 µM (active); in [11], 0.119 µM (active); in assay [12], 1.74 µM (inactive); in assay [20], 1.06 µM (active); in assay [13], 0.0653 µM (active); in [14], 0.0424 µM (active). Also, the GI50 in assay [15] is 0.255 µM (active).

In the case of `CC/C=C\C/C=C\C/C=C\CCCCCCCC(=O)OCC(O)CO` (stereo not given), the GI50 is 43.4 µM (inactive) in assay [1]; > 100 µM (inactive) in [2]; > 100 µM (inactive) in assay [3]; 20.7 µM (inactive) in assay [16]; > 86.1 µM (inactive) in assay [6]; > 61.7 µM (inactive) in [7]. For the same compound, the GI50 in assay [8] was 39.9 µM (inactive); in assay [17], > 57.8 µM (inactive); in assay [18], > 84.3 µM (inactive); in assay [9] it was 22 µM (inactive); in [10] it was > 84.9 µM (inactive); in assay [11] it was 38 µM (inactive). Moreover, the GI50 in assay [12] is > 100 µM (inactive); in assay [20], > 100 µM (inactive); in [13] it was > 58.5 µM (inactive); in assay [14] it was > 95.1 µM (inactive); in [15], > 100 µM (inactive).
